In patent US20250032448A1, “COMPOUND FOR USE IN THE TREATMENT AND/OR PREVENTION OF PARASITIC MEDIATED DISEASES” (priority 2016, published 2025):
Converted amounts (≈) assume the structure as drawn. Like-named read-outs stand apart in the source and are kept apart here.

Key:
[1] = tested on: Plasmodium falciparum 3D7 (chloroquine-sensitive strain); assay: In vitro drug sensitivity assay (modified WHO microtest), schizont maturation; format: cell-based
Description: (§1) For malaria culture, venous blood (not more than 50 ml) was collected by venepuncture from healthy adult volunteers. Host leukocytes were removed using a CF11 column, and packed infected red blood cells were used for the in vitro drug sensitivity assay. Ethical approval for this study was obtained from the Institutional Review Board, National University of Singapore (IRB protocol reference: B-14-056).
(§2) Parasites were thawed and grown in leukocyte-depleted red blood cells at 2% haematocrit at 37° C. in controlled conditions (3% oxygen, 4% carbon dioxide and 93% nitrogen), in RPMI 1640 tissue culture medium supplemented with 50 μg/ml hypoxanthine, 25 mM 4-(2-hydroxyethyl) piperazine-1-ethanesulfonic acid (HEPES), 0.3 g/L L-glutamine, 11 mM glucose, 25 mM NaHCO3, 2.5 μg/ml gentamicin and 0.5% w/v Albumax II.
(§3) Parasites were synchronized using sorbitol treatment. Red blood cells were resuspended in 5% (w/v) D-sorbitol and incubated at 37° C. for 20 minutes, after which the erythrocytes were washed twice, resuspended in RPMI and returned to culture conditions. Thin smears were made before and after each experiment to determine parasitaemia and parasite stage.
(§4) Crude extracts or fractions were preliminarily screened at a single concentration. For preliminary screening of isolated compounds, the starting concentrations used were 11.36 μg/ml and 5.953 μg/ml. Duplicates were performed. […] Seven concentrations of serial dilutions (two-fold) of each extract were added in duplicate on the 96-well pre-dosed drug plates (Nunc, Singapore). […] Triplicates were performed for IC50 determination.
(§5) 200 μl of a 2% haematocrit blood medium mixture consisting of RPMI 1640, […] gentamicin sulphate, 25 mM PEPES, 11 mM glucose, 200 μM hypoxanthine, and 0.5% w/v Albumax II (Gibco, Singapore) was added to each well of plates pre-dosed with the extracts. The parasites were cultured continuously in vented culture flasks in a gas chamber at 37° C. with 5% CO2 until they reached mature stage.
(§6) Thick blood smears were made from each well and stained with 5% Giemsa solution for 15 mins, and examined microscopically. The average number of schizonts (defined as parasites with five or more chromatin dots visible under microscopy) remaining at the end of the 42-48 hour incubation period per 100 parasites in each well was determined by microscopy, and normalized to the control well. Ring stage parasites and gametocytes were not included in the count. The dose-response curves were analysed using nonlinear regression analysis, and the concentration which inhibited 50% growth (IC50) was derived using an inhibitory sigmoid Emax model (Le Nagard et al. 2011).

[2] = tested on: Plasmodium falciparum Dd2 (chloroquine-resistant strain); assay: as above; format: cell-based
Description: as §1, §2, §3, §4, §5, §6

in vitro = settings: human
Description: (§7) Serial dilutions were performed using complete media (RPMI supplemented with 10% foetal bovine serum). The final concentration of DMSO for all test samples was not more than 0.4%.
(§8) Cytotoxicity was determined using the WST-1 assay (WST-1 cell proliferation reagent, Roche, Singapore). Exponentially growing NL20 cells were plated in 96-well plates at an optimized cell density of 3.5×10^4 cells/100 μl. The adherent cells were incubated overnight at 37° C. and 5% CO2 to allow attachment. After 48 h of treatment with test samples, the media were aspirated and replaced with 10% v/v WST-1 in complete media. The plates were incubated for 30 min. The absorbance in each well was quantitated at 440 nm against a reference wavelength of 650 nm using a microplate reader (EnSpire Multimode Plate Reader, PerkinElmer, USA).
(§9) Cell viability was expressed as a percentage of the vehicle control. […] Each reported value is the mean±SD from three independent experiments. The selectivity index (SI) was determined by taking the ratio of IC50 against P. falciparum and CC50 against NL20 cells.

NL20 cells = assay: Cytotoxicity assay (WST-1)
Description: as §7, §8, §9

uninfected host RBCs = format: cell-based; settings: human, 1 h
Description: The toxicity of anisolactone in uninfected host RBCs was evaluated using the haemolysis assay, according to a protocol described previously by Sarkar et al. (2016) with some modifications. Freshly obtained RBCs were washed thrice with PBS (pH 7.4). The haemolysis assay was performed at 2% hematocrit with two-fold serial dilutions from 0.1 mg/ml of test compounds in a final volume of 200 μl, followed by incubation at 37° C. for 1 h. 1% Triton-X (v/v) was used as a positive control. Non-specific haemolysis was corrected for by using untreated RBCs as negative control. After incubation, the plates were centrifuged at 2000 rpm for 5 min and the absorbance of the supernatant was measured at 540 nm using a spectrophotometric plate reader (Tecan Sunrise, Switzerland) to measure the amount of haemoglobin released upon RBC lysis. The percentage of haemolysis was calculated as follows: [(Optical density (OD)540 of sample−OD540 of PBS)/(OD540 of 1% Triton X-100−OD540 of PBS)]×100. The compounds were tested in triplicates. Ethics approval for this study was obtained from the Institutional Review Board, National University of Singapore (IRB protocol reference: B-14-056).

[3] = 3D7, read-out: IC50 (in μg/ml) against P. falciparum 3D7
[4] = 3D7, read-out: IC50 against P. falciparum 3D7 (Table 4)
[5] = 3D7, read-out: IC50 against P. falciparum 3D7 (molar value in brackets)
[6] = DD2, read-out: IC50 (in μg/ml) against P. falciparum Dd2
[7] = DD2, read-out: IC50 against P. falciparum Dd2 (molar value in brackets)

IC50 ([1]; 3D7, n = 3, 42-48 hour incubation, read-out: IC50 (in μg/ml) against P. falciparum 3D7) [µg/mL] | IC50 ([1]; 3D7, n=3, read-out: IC50 against P. falciparum 3D7 (molar value in brackets)) [nM] | Compound | IC50 [1, 3] [µg/mL] | IC50 [1, 4] [µg/mL] | IC50 [1, 5] [nM] | IC50 [2, 6] [µg/mL] | IC50 [2, 7] [nM] | CC50 at 48 h (in vitro) [µg/mL] | SI (selectivity index) (NL20 cells; P. falciparum 3D7 IC50 versus NL20 CC50) | IC50 ([1]; 3D7, as used for the selectivity index, read-out: IC50 against P. falciparum 3D7 (Table 4)) [µg/mL] | cytotoxic effects on host cells (NL20) (NL20 cells) | % Haemolysis (uninfected host RBCs) [%]
– | – | CCN(CC)CCCC(C)Nc1ccnc2cc(Cl)ccc12 (centres unmarked) [Chloroquine, chloroquine diphosphate] | 0.0128 ± 1.4e-05 | 0.0128 | 24.4 | 0.16 ± 0.04 | 310 | – | – | – | – | –
– | – | C[C@H]1[C@H](OC(=O)CCC(=O)O)O[C@@H]2O[C@@]3(C)CC[C@H]4[C@H](C)CC[C@@H]1[C@@]24OO3 [Artesunate, artesunate] | 0.000693 ± 1.11e-08 | 0.000693 | 1.8 | 0.00211 ± 6.8e-07 | 5.48 | 5.63 ± 0.82 (≈ 14.6 µM) | 8123 | – | – | –
7.5 | 20500 | CC1=CC(C/C(C)=C/COc2c3ccoc3cc3oc(=O)ccc23)OC1=O (centres unmarked) [Compound 1, anisolactone] | – | – | – | – | – | – | – | 7.5 | did not exhibit cytotoxic effects | 0.99 ± 0.28
